The results in this text go back to patent US12163169B2, “Inducible chimeric cytokine receptors” (Allogene Therapeutics, Inc., priority 2018, dated 2024).

Ends that are not written are not given here.

Assay type in all cases: cell-based
One data set deals with STAT5. Briefly: HEK293T Stat5 reporter assay of FKBP switches lacking JAK-binding motifs or cytotail tyrosines (Example 3B). As to conditions: 5 hours post-treatment, compared to positive control FKBP switch TpoR(478-582)/IL7R(316-459), FIG. 5B. An excerpt: To identify components essential for the inducible chimeric cytokine receptor to signal, we generated FKBP switches that lacked either the JAK-binding domains or tyrosine residues in the cytotail domain. Specifically, either one or both JAK-binding motifs from TpoR(478-582) were replaced with glycine linkers, or all or a single (i.e. Y449) tyrosine residue(s) in the IL7R(316-459) cytotail was mutated to phenylalanine. The term “switch” as used in the Example section refers to the inducible chimeric cytokine receptor. For example, an “FKBP switch” as used herein is an inducible chimeric cytokine receptor comprising FKBP as the dimerization domain.
A HEK293T cell reporter assay was used to test how each of these domains affected cytokine signaling. Briefly, 20,000 HEK293T cells were plated into each well of a poly-L-lysine-coated 96-well flat-bottom plate and allowed to adhere overnight. […] 24 hours after transfection, cells were either left untreated, or treated with the indicated concentrations of AP1903 (Apex Bio) diluted in serum-free media, and Stat reporter activity was determined 5 hours post-treatment using the Dual-Glo Luciferase Assay System (Promega). […]

In data set [1] the test system is CAR T cells. Briefly: Cytokine release (MSD assay) on Day 5 of the AP1903-driven growth assay (Example 16B). As to conditions: 500 ng/ml of AP1903; FIGS. 42A-42B. The procedure: To test whether different cytotail outputs influenced the memory differentiation and long-term survival of CAR T cells, we performed an AP1903-driven growth assay. CAR T cells bearing the indicated chimeric receptors were thawed and the percentages of CAR+ cells were normalized to the sample with the lowest transduction efficiency (i.e. 20% CAR+) by adding non-transduced T cells. Cells were either left untreated, or treated with 500 ng/ml of AP1903, and in the absence of exogenous cytokines (unless specified in the case of positive controls) or target cells for 2 weeks. […] On Day 5 of the AP1903-driven growth assay, supernatents were sampled for the analysis of cytokine release using the MSD assay (Meso Scale Discovery). At the end of the 2-week culture, the memory and exhaustion phenotypes of surviving CAR T cells were determined. Briefly, duplicate samples from each culture condition cells were harvested and stained using the Zombie NIR Fixable Viability Kit (Biolegend). […]

Data set [2] relates to CAR T cells. Briefly: Cytokine release (MSD assay) at the end of the 4-day cytotoxicity assay (Example 16B). As for the experimental part:
(§1) To test whether different cytotail outputs influenced the effector function of CAR T cells, we performed a 4-day in vitro cytotoxicity assay. Briefly, 30,000 U87KO-EGFRvIII-nucRFP target cells were seeded and allowed to attach in 96-well plates with black walls and flat clear bottom in 50 uL RPMI containing 10% FBS (Hyclone), non-essential amino acids, sodium pyruvate and 20-25 mM HEPES. U87KO-EGFRvIII is a kind gift from Cellectis SA (Paris, France). U87KO-EGFRvIII was derived from the parental cell line, U87MG (ATCC), by first knocking out endogenous wildtype EGFR using Transcription Activator-Like Effector Nucleases (TALEN), and then stably overexpressing full-length human EGFRvIII via lentiviral transduction. To facilitate target cell imaging via the IncuCyte Live Cell Analysis Imaging System, U87KO-EGFRvIII-nucRFP target cells were derived from U87KO-EGFRvIII by a second lentiviral transduction with IncuCyte NucLight Red Lentivirus Reagent (Sartorius). EGFRvIII CAR (2173 scFv) T cells bearing an FKBP switch with the respective cytotails were thawed and added to plated target cells at an Effector:Target (E:T) ratio of 1:8. As a comparison, CAR T cells coexpressing FKBP-MyD88-CD40 were included. […] The number of live target cells at each timepoint was determined by enumerating the number of live nuclearRFP+ cells using the Incucyte Live Cell Analysis Imaging System. […]

Data set [3] deals with U87KO-EGFRvIII-nucRFP target cells. Briefly: 4-day in vitro cytotoxicity assay against U87KO-EGFRvIII-nucRFP target cells (Example 16B). As to conditions: EGFRvIII CAR (2173 scFv); E:T 1:8; 500 ng/ml AP1903; 4 days; FIGS. 40A-40F. The procedure:
as §1

For the next data set, the system named is STAT4. The experiment in a line: HEK293T transcription factor reporter assay of cytotails (Example 16A), Stat4. As to conditions: 1 ug/mL AP1903, 6 hours; FIG. 39B. As for the experimental part:
To test the signaling pathways activated by different cytotails, we utilized a HEK293T cell reporter assay. Briefly, 20,000 HEK293T cells were plated into each well of a poly-L-lysine-coated 96-well flat-bottom plate and allowed to adhere overnight. An inducible cytokine receptor (2.5 ng), the respective transcription factor response element that drives Firefly Luciferase (100 ng; Promega) and a Renilla Luciferase control reporter vector (1 ng; Promega) were mixed in a final volume of 5 uL in Opti-MEM (Gibco) (“DNA mix”). 0.3 uL Lipofectamine 2000 (Invitrogen) in 5 uL Opti-MEM was incubated at room temperature for 5 minutes and then added to the DNA mix. The mixture was incubated at room temperature for 20 minutes and the total volume of 10 uL was added to each well containing HEK-293T. As a negative control, the FKBP ectodomain was coupled to the transmembrane and short intracellular region of TpoR(478-528) that lacked the JAK-binding domain and cytotail (i.e. TpoR CTRL). As a comparison, the FKBP ectodomain was coupled to the MyD88/CD40 signaling domains (henceforth referred to as “FKBP-MyD88-CD40”). 24 hours after transfection, cells were either left untreated, or treated with 1 ug/mL AP1903 (Apex Bio) diluted in serum-free media. 6 hours after AP1903 treatment, reporter activity was determined using the Dual-Glo Luciferase Assay System (Promega). […]

Data set [4] deals with CAR T cells. The experiment in a line: AP1903-driven growth assay: enrichment, memory and exhaustion phenotype of CAR T cells (Example 16B). As to conditions: 2 weeks; exogenous recombinant cytokine 10 ng/mL; 20% CAR+ seeded; FIG. 43.
Method: To test whether different cytotail outputs influenced the memory differentiation and long-term survival of CAR T cells, we performed an AP1903-driven growth assay. CAR T cells bearing the indicated chimeric receptors were thawed and the percentages of CAR+ cells were normalized to the sample with the lowest transduction efficiency (i.e. 20% CAR+) by adding non-transduced T cells. Cells were either left untreated, or treated with 500 ng/ml of AP1903, and in the absence of exogenous cytokines (unless specified in the case of positive controls) or target cells for 2 weeks. As positive controls, CAR T cells were alternatively supplemented with either exogenous recombinant IL-7 or IL-2 (10 ng/mL each; Miltenyi). […] At the end of the 2-week culture, the memory and exhaustion phenotypes of surviving CAR T cells were determined. Briefly, duplicate samples from each culture condition cells were harvested and stained using the Zombie NIR Fixable Viability Kit (Biolegend). […]

As to “IL7R(424-459; Y456F): FKBP switch (Example 16) cytotail said to abrogate Stat5 activity, used as comparator (GILTLNPVAQGQPILTSLGSNQEEAYVTMSSFFQNQ; also: FKBP switch fusion; UniProt P16871 424-459, looked up, variant Y456F)”, the “AP1903-induced Stat5 reporter activity” value in the data set with STAT5 is “abrogates Stat5 activity”.
In the case of “IL12Rb2small(775-825): FKBP switch (Example 16) bearing the IL12Rb2small(775-825) cytotail (SDPKPENPACPWTVLPAGDLPTHDGYLPSNIDDLPSHEAPLADSLEELEPQ; also: FKBP switch fusion; UniProt Q99665 775-825, looked up, fragment)”, in the data set with CAR T cells [1], the “cytokine release on Day 5 of AP1903-driven growth” value is given as “secrete elevated amounts of pro-inflammatory cytokines”. The IL-10 secretion result with CAR T cells [2] (AP1903, FIG. 41A) is on record as “increased IL-10 secretion”. Also, the “pro-inflammatory cytokine release in the presence of AP1903” value in the data set with CAR T cells [2] (IL-17A/F, IL-21, TNFa and IFNg, FIG. 41A) is recorded as “released elevated amounts of pro-inflammatory cytokines”. For the same molecule, in data set [3], the “CAR T cell cytotoxicity in the presence of AP1903” value is recorded as “enhances CART cell cytotoxic potency”. In addition, the Stat4 reporter activation result in the data set on STAT4 is reported as “activating Stat4”.

B1: IL-7: exogenous recombinant IL-7 (Miltenyi), positive control (protein, UniProt P13232 26-177, looked up)
Interleukin-7: DCDIEGKDGKQYESVLMVSIDQLLDSMKEIGSNCLNNEFNFFKRHICDANKEGMFLFRAARKLRQFLKMNSTGDFDLHLLKVSEGTTILLNCTGQVKGRKPAALGEAQPTKSLEENKSLKEQKKLNDLCFLKRLLQEIKTCWNKILMGTKEH
As for B1, in the data set on CAR T cells [4], the “percentage of CAR+ cells” value is reported as around 20%.
